# Measurements from publication PMC12015663 (Cancer Research Communications, 2025).
# How the values were obtained:
# [1] = system: pERK in A375 (BRAF V600E); assay: pERK modulation in vitro, MSD ELISA, A375; format: cell-based; conditions: Homo sapiens, A-375, 1 h, read-out: pERK EC50
# [2] = target: T1, ARAF (Homo sapiens, UniProt P10398); assay: Time-resolved fluorescence energy transfer binding assay (KINETICfinder); conditions: partial length active recombinant human ARAF at 5 nmol/L; 60 minutes, room temperature; singlicate
# T1 sequence (P10398 310-570 limits assumed): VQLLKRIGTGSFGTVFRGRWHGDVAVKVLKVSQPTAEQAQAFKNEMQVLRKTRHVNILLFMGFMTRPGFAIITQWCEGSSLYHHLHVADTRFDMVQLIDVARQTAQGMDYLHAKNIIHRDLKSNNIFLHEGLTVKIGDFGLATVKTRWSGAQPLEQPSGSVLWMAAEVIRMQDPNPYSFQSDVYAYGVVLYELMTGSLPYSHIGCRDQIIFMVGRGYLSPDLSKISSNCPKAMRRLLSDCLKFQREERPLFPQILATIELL
# Method: Compounds were mixed with assay buffer (50 mmol/L HEPES pH 7.5, 1 mmol/L Ethyleneglycol-bis-(aminoethyl-ether)-N,N,N',N'-tetraacetic acid, 0.01% Brij-35, 10 mmol/L MgCl2, and 2 mmol/L Dithiothreitol), and 5 μL of this solution was transferred to the assay plate. The final concentration of DMSO in the assay was 1%. Hundred percent DMSO was used as a high and low control. Assays were run in singlicate with a reference compound included in each assay to evaluate reproducibility and assay quality.
# Wells containing the fluorescent probe, antibody, and target (ARAF) were used as the high reaction control (total binding) and wells containing the probe and antibody were used as the low reaction control (nonspecific binding). […] Next, the substrate antibody solution was added, and the reaction was incubated for 60 minutes at room temperature. Percentage inhibition of each well was calculated using the following formula: % inhibition = 100 − [compound emission ratio (ER) − low control ER/high control ER − low control ER] × 100. Results were fitted to a concentration response curve with a variable slope and constraints of 0 and 100 for bottom and top, respectively, to generate the IC50 values.
# [3] = system: NF1-LOF ERMS PDX; assay: Antitumor efficacy in vivo, NF1-LOF ERMS PDX; design: species or system mice; conditions: 25 mg/kg orally daily for 21 days
# Method: (§1) Female mice with tumors harboring an AGK::BRAF fusion melanoma PDX or NF1-LOF ERMS PDX were established by inoculating NOD or NOG/SCID mice, respectively, with tumor fragments harvested from stock mice. Mice with tumors harboring an NF1-LOF mutation MeWo xenograft were established in 10 mice per treatment group by inoculating 7- to 9-week-old female BALB/c nude mice on the right flank with tumor cells (5 × 10^6) in 0.1 mL of PBS mixed with Matrigel (1:1) for tumor development. For the AGK::BRAF fusion melanoma PDX model, 7- to 8-week-old mice were inoculated subcutaneously on the right flank and randomized into eight mice per treatment group. […]
# (§2) Randomization was performed based on the “Matched distribution” method (StudyDirector software, version 3.1.399.19) with the date of randomization denoted as day 0. Tumor volumes and body weight were measured twice per week after randomization. Tumor volume was measured in two dimensions (2D) using a caliper, and the volume was expressed in mm^3 using the formula V = (L × W × W)/2, in which V was tumor volume, L was tumor length (the longest tumor dimension), and W was tumor width (the longest tumor dimension perpendicular to L). Percentage change in tumor volume and body weight was calculated using StudyDirector software (version 3.1.399.19). […]
# [4] = system: NF1-LOF MeWo xenograft; assay: Antitumor efficacy in vivo, NF1-LOF MeWo xenograft; design: species or system mice; conditions: 25 mg/kg orally daily for 28 days
# Method: as §1, §2
# [5] = PK parameters in mouse; format: in vivo; conditions: Mouse PK (at efficacious doses), 12 – 25 mg/kg, QD
# Method: The mice in the control vehicle group were dosed either daily or twice daily.
# [6] = PK parameters in human; format: in vivo; conditions: 600 mg, QW
# [7] = system: BRAF wt; design: method as in earlier work; conditions: full length human construct; 0.125 nmol/L GST-tagged BRAF wild type, 12.5 nmol/L biotinylated MEK, ATP 50 μmol/L; 41 (TAK-632: ref 26-28); cited from earlier work
# [8] = system: plexiform neurofibroma; conditions: GEMM models of plexiform neurofibroma, germline NF1-LOF mutations; cited from earlier work
# [9] = system: MeWo; assay: CellTiter-Glo cell viability assay, MeWo
# [10] = system: pERK in MeWo (NF1-LOF); assay: pERK modulation in vitro, MSD ELISA, MeWo; conditions: Homo sapiens, 1 h, read-out: pERK EC50
# [11] = system: sNF96.2; assay: CellTiter-Glo cell viability assay, sNF96.2
# [12] = system: pERK in sNF96.2 (NF1-LOF); assay: pERK modulation in vitro, MSD ELISA, sNF96.2; conditions: SNF96.2, 1 h, read-out: pERK EC50
# [13] = system: NCI-H1838; assay: CellTiter-Glo cell viability assay, NCI-H1838
# [14] = system: pERK in NCI-H1838 (NF1-LOF); assay: pERK modulation in vitro, MSD ELISA, NCI-H1838
smiles,measurement,setting,value
C[C@@H](NC(=O)c1ncnc(N)c1Cl)c1ncc(C(=O)Nc2cc(C(F)(F)F)c(Cl)cn2)s1 [Tovorafenib],EC50,[1],0.07 µM
same,IC50,[2],0.055 µM
same,antitumor activity,[3],Lack of significant antitumor activity
same,tolerability,[3],well tolerated
same,tolerability,[4],well tolerated
same,antitumor activity,[4]; BALB/c nude mice,Lack of significant antitumor activity
same,Cmin,[5],0.596 to 1.265 µg/mL
same,AUC(0-t),"[5]; plasma, oral, read-out: Daily AUC0-24",50.1 to 96.6 µg·h/mL
same,Cmin,[6],0.899 µg/mL
same,AUC(0-t),"[6]; in vivo, calculated from weekly AUC0-168 divided by 7, read-out: Daily AUC0-24",47.6 µg·h/mL
same,antitumor activity,[8],lack of tovorafenib antitumor activity
same,anti-proliferative activity,[9]; CTG 72 hours,little activity
same,EC50,"[9]; Homo sapiens, 72 h, read-out: Proliferation EC50",7.5 µM
same,EC50,[10],8.3 µM
same,EC50,"[11]; SNF96.2, 72 h, read-out: Proliferation EC50",0.99 µM
same,sensitivity of cell line,"[11]; sNF96.2, CTG 72 hours",sensitive
same,EC50,[12],1.6 µM
same,EC50,"[13]; Homo sapiens, NCI-H1838, 72 h, read-out: Proliferation EC50",> 10 µM
same,anti-proliferative activity,"[13]; NCI-H1838, CTG 72 hours",little activity
same,EC50,"[14]; Homo sapiens, NCI-H1838, 1 h, read-out: pERK EC50",> 10 µM
same,extent of the pERK increase,"[14]; NCI-H1838, 1 hour after treatment, compared across type II RAF inhibitors",higher extent
